US11440880B2, “Thalidomide analogs and methods of use” (The USA, as represented by the Secretary, Department of …, priority 2015, dated 2022)

Columns and labels:
[1] = test system: nitrite levels in the culture media; assay: Nitrite level (Griess Reagent System) in LPS-challenged RAW 264.7 cells; format: cell-based, mouse; design: key: NS=not significant; a “+” sign=anti-inflammatory or increased cell numbers; a “−” sign=cell toxicity or pro-inflammatory; details: LPS 30 or 60 ng/mL, 24 h
Procedure, shortened: (§1)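 RAW 264.7 cells pretreated 1 h with compound in DMSO vehicle, then challenged with LPS (30 or 60 ng/mL) for 24 h at 37° C. Conditioned-media nitrite by Griess (520 nm, sodium nitrite standard curve, 1.5 μM cutoff) in μM; mouse TNF-α by ELISA as pg/ml or % change from control.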

[2] = test system: mpo:GFP zebrafish embryos (neutrophil migration to the wound site); assay: mpo:GFP zebrafish fin-clip neutrophil migration (inflammation) assay; format: in vivo; design: mpo:GFP inflammation n (survived/tested): concentration or dose not given beside the values; details: for minimal effective concentration: Danio rerio, Neutrophil, lowest concentration producing an effect, compounds not producing an effect shown at the highest evaluated concentration; for mpo:GFP inflammation n (survived/tested): embryos survived/tested at the concentration given
Source text: Zebrafish embryology: The use of zebrafish embryo (Danio rerio) bioassays as a preclinical model in the classification of novel compounds has increased in recent years due to several factors including; low cost, ease of maintenance, speed of embryonic development, transparency of the embryos and genetic conservation between zebrafish and humans (Howe et al., Nature 2013; 496:498; Therapontos et al., PNAS 2009, 106:8573; Mahony et al., PNAS 2013, 110:12703; Beedie et al., Oncotarget 2016, 7(22):33237; Beedie et al., Mol. Cancer Ther. 2015, 14(10):2228). Two established zebrafish reporter lines were used—the fli1:EGFP line, where the fli1 promoter drives expression of enhanced green fluorescent protein within the developing vasculature (Lawson et al., 2002), and the Tg(mpo::EGFP) line (also known as mpo:GFP), which expresses green fluorescent protein via the neutrophil specific myeloperoxidase promoter (Renshaw et al., Blood 2006, 108:3976). The use of these zebrafish transgenic reporter lines allows for the identification of potential anti-angiogenic and anti-inflammatory compounds respectively, and both have been used previously to successfully classify the action of thalidomide analogs (Therapontos et al., 2009; Mahony et al., 2013; Beedie et al., Oncotarget 2016, 7(22):33237; Beedie et al., Mol. Cancer Ther. 2015, 14(10):2228). Zebrafish embryos were treated with analogs as previously described (Mahony et al., 2013). Briefly, fli1:EGFP embryos were collected and embryos were allowed to develop for 24 hours. Embryos were dechorionated manually and exposed to test compounds or vehicle control for a further 24 hours, imaged and analyzed for intersegmental vessel (ISV) growth. At 24 hours post fertilisation (hpf) the ISVs were ideal to study to visualize and analyze the actions of compounds on angiogenesis. At this time point ISVs were rapidly forming beneath the developing head, over the body and had yet to form in the tail (Lawson and Weinstein, Developmental Biology 2002, 248:307; Therapontos and Vargesson, Developmental Dynamics 2010, 239:2761). Additionally, these sprouts would go on to form the bilateral dorsal longitudinal anastomotic vessels. By treating before this fusion and formation occurs, the effect of each compound on the individual vessels as well as overall patterning structural integrity (Isogai et al., Development 2003, 130:5281) could be determined. Tg(mpo::EGFP) were tail fin clipped as previously detailed (Renshaw et al., 2006; Mahony et al., 2013; Beedie et al., Oncotarget 2016, 7(22):33237; Beedie et al., Mol. Cancer Ther. 2015, 14(10):2228) and incubated with test compounds or vehicle control at 72 hours post fertilization. Fish were imaged at 24 hours and the number of migratory neutrophils present at the wound site were counted. Compounds inducing an at least 50% reduction of neutrophils to the wound site were considered to have anti-inflammatory properties in this system. All larvae were assessed for viability and morphological integrity.
To assess the immunomodulatory effects of the thalidomide analogs, the mpo:gfp transgenic zebrafish line (Renshaw et al., Blood 2006, 108:3976-3978) was utilized because it is an accepted model of inflammation, and can be used to test the effect of anti-inflammatory agents. These embryos express GFP-tagged myeloperoxidase, where green fluorescence marks the neutrophil cells involved in the inflammatory response process, for example following injury, from 72 hours post fertilization (Renshaw et al., 2006; Mahony et al., 2013; Beedie et al., Oncotarget 2016, 7(22):33237). At 72 hpf the dorsal third of the tail fin was removed and the embryos were immersed in the desired compound or vehicle (FIGS. 5A-5C). The embryos were examined for the effect on the inflammatory response quantified as an induction and migration of neutrophils to the wound site 24 hours later.

[3] = test system: fli1:EGFP zebrafish embryos (intersegmental vessel growth); assay: fli1:EGFP zebrafish embryo angiogenesis assay; format: in vivo; design: fli1:EGFP angiogenesis n (survived/tested): concentration or dose not given beside the values; details: for minimal effective concentration: Danio rerio, lowest concentration producing an effect, compounds not producing an effect shown at the highest evaluated concentration; for fli1:EGFP angiogenesis n (survived/tested): embryos alive after 24 hours of exposure
Procedure, shortened: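 fli1:EGFP embryos grown 24 hpf, dechorionated and exposed to compound or vehicle over a range of concentrations for up to 24 h, with CPS49 as positive control. Imaged at 48 hpf for intersegmental vessel formation and growth; survival after 24 h exposure recorded, and values reflect the lowest concentration producing an effect.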

[4] = test system: TNF-α protein; assay: TNF-α protein level (ELISA) in LPS-challenged RAW 264.7 cells; format: cell-based, mouse; design: key: NS=not significant; a “+” sign=anti-inflammatory or increased cell numbers; a “−” sign=cell toxicity or pro-inflammatory; details: LPS 30 or 60 ng/mL, 24 h
Procedure, shortened: as §1

[5] = test system: RAW 264.7 cells; assay: Cell viability (CellTiter 96 AQueous One) of LPS-challenged RAW 264.7 cells; format: cell-based, mouse; design: key: NS=not significant; a “+” sign=anti-inflammatory or increased cell numbers; a “−” sign=cell toxicity or pro-inflammatory
Procedure, shortened: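 RAW 264.7 murine macrophages pretreated 1 h with compound or DMSO vehicle, then challenged with LPS (serotype 055:B5) at 30 or 60 ng/mL final for 24 h. After media replacement, viability measured by tetrazolium (MTS) conversion, absorbance at 490 nm, reported as O.D.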

Row | SMILES | Nitrite ([1]; 1 μM) | Nitrite ([1]; 10 μM) | Nitrite ([1]; 30 μM) | minimal effective concentration [2] [µg/mL] | mpo:GFP inflammation n (survived/tested) [2] | minimal effective concentration [3] [µg/mL] | fli1:EGFP angiogenesis n (survived/tested) [3] | TNF-α ([4]; 1 μM) | TNF-α ([4]; 10 μM) | TNF-α ([4]; 30 μM) | Viability ([5]; 1 μM) | Viability ([5]; 10 μM) | Viability ([5]; 30 μM) | anti-inflammatory activity (inhibition of neutrophil migration) ([2]; in words)
1 | O=C1CCC(N2C(=O)c3cccnc3C2=O)C(=O)N1 (stereo not drawn) [Compound 57] | NS | + | + | 17 | 8/15 | 8.5 | 8/12 | NS | NS | NS | NS | NS | NS | 
2 | O=C1c2cccc([N+](=O)[O-])c2CN1C12CC3CC(CC(C3)C1)C2 [Compound 76, 2,3-Dihydro-4-nitro-2-(tricyclo[3.3.1.1^3,7]dec-1-yl)-1H-isoindol-1-one] | NS | + | + | 100 | 5/11 | 10 | 28/32 | NS | NS | + | NS | NS | NS | 
3 | CC(N1Cc2ccccc2C1=S)C12CC3CC(CC(C3)C1)C2 (stereo not drawn) [Compound 74, 2,3-Dihydro-2-[1-(1-tricyclo[3.3.1.1^3,7]dec-1-yl)ethyl]-1H-isoindol-1-thione] | NS | NS | + | 200 | 6/14 | 10 | 9/15 | NS | NS | NS | NS | NS | NS | 
4 | O=C1c2ccccc2CN1c1ccc(C(F)(F)F)cc1 [Compound 68] | NS | NS | NS | 100 | 5/15 | 10 | 22/34 | NS | NS | NS | NS | NS | NS | 
5 | FC(F)(F)c1ccc(/N=C2/c3ccccc3CN2c2ccc(C(F)(F)F)cn2)nc1 [Compound 66] | NS | NS | + | 100 | 6/15 | 100 | 15/15 | NS | NS | + | − | NS | − | 
6 | O=C1CCC(N2C(=O)c3ccncc3C2=O)C(=O)N1 (stereo not drawn) [Compound 58] | + | + | + | 5 | 7/16 | 10 | 33/33 | NS | NS | NS | NS | NS | NS | most effective analog at inhibiting the inflammatory response
7 | O=C1c2cccc([N+](=O)[O-])c2CN1C12CC3CC(CC1C3)C2 [Compound 84] | NS | + | + | 10 | 12/21 | 50 | 2/11 | NS | NS | NS | NS | NS | NS | 
8 | FC(F)(F)c1ccnc(/N=C2/c3ccccc3CN2c2cc(C(F)(F)F)ccn2)c1 [Compound 67, N-(4-Trifluoromethylpyridin-2-yl)-1-imino(4-trifluoromethylpyridin-2-yl)-isoindoline] | NS | NS | + | 200 | 6/15 | 10 | 13/22 | NS | NS | NS | NS | NS | NS | 
9 | O=C1c2ccccc2CN1c1nc2ccc(C(F)(F)F)cc2s1 [Compound 62] | NS | NS | + | 10 | 6/20 | 10 | 18/20 | NS | NS | NS | NS | NS | NS | 
10 | O=C1c2cccc(O)c2C(=O)N1c1nc2ccc(C(F)(F)F)cc2s1 [Compound 61] | NS | + | + | 1 | 9/20 | 100 | 3/15 | NS | NS | + | NS | NS | − | 
11 | CC1(C)S[C@@H]2[C@H](N3C(=O)c4ccccc4C3=O)C(=O)N2[C@H]1C(=O)O [Compound 64] | NS | NS | NS | 10 | 8/15 | 10 | 8/15 | NS | NS | NS | NS | NS | NS | 
